Experimental data: patent US5466716A, “Liposomal trimethylsphingosine” (The Biomembrane Institute, priority 1994, dated 1995)
Read-outs that look alike come from different tables or passages of the source.

Tests used:
[1] = test system: neutrophils; assay: phagokinetic activity of neutrophils on gold sol-coated plates; format: cell-based, human; conditions: for activity at 4.5 µM / activity at 12 µM: Homo sapiens, Neutrophil; for activity at 4.5 µM: 2 h, read-out: Area Swept; for activity at 12 µM: read-out: Area Swept (recovery of phagokinetic activity)
Protocol: The phagokinetic activity of neutrophils on gold sol-coated plates can be determined by a technique essentially as taught in Albrecht-Buehler (Cell, 11, 395, 1977). […] Thus, the inhibitory effect of TMS on phagokinetic activity is not dependent on cytotoxicity.
.sctn. The area swept by neutrophils was determined in photographs of the
monolayers. The regions cleared by neutrophil movement were then cut out
Phagokinetic activity was observed by tracing tracks of neutrophils moving on a glass substrate covered with gold colloid particles. The technique was described originally by Albrecht-Buehler, supra, using 3T3 and other cell lines. Briefly, 22×22 mm square glass coverslips (Corning Glass Works, Corning, N.Y.) were dipped for 1 min into 1% BSA prepared in Milli Q water. The BSA solution was prepared fresh each day and passed through 0.20 μm Nalgene filters (Nalgene Labware Division, Rochester, N.Y.).
The coverslip then was drained by touching a Kim-wipe paper towel to its edge, dipped into 100% ethanol and rapidly and completely dried in a 85° C. hot airstream. The coverslip was placed in a 3.5 cm Falcon plastic dish. Then 5.4 ml of AuCl4 H and 18 ml of 36.5 mM Na2 CO3 were added to 33 ml of distilled water and heated. Immediately after reaching the boiling point, 5.4 ml of 0.1% formaldehyde in water were added quickly and mixed. The suspension of gold particles forming a brownish color was distributed immediately onto the dish (2 ml each) and the coverslip was incubated for 2 hr at 37° C.
Particle-coated coverslips were washed in PBS, then twice in RPMI 1640 and finally put in another 3.5 cm Falcon plastic dish containing 2 ml of RPMI 1640 with glutamate and pyruvate. The coverslips were stored at 4° C. and used within 24 hr after preparation.
The freshly-purified neutrophils (1×10^4 cells/plate) were added onto the colloid-coated coverslip. TMS and other effectors were added into the medium on the plate. As a control, the solvent of the effectors (50% ethanol) was added at an equal amount. At that concentration (0.1%), ethanol brought no significant effect on neutrophil activities. To observe cell recovery from exposure to the effectors, neutrophils (2×10^5 cells/ml) were pre-incubated at 37° C. with 12 μM of TMS, SPN and DMS, then distributed to the dish dropwise, diluting the effectors 200-fold. Incubation was conducted under 5% CO2 at 37° C. for 2 hr and terminated by adding 200 μl of 10% formaldehyde. Microscopic examination of each plate was performed with a Nikon microscope, connected to a Polaroid camera for recordings. Phagokinetic activity was measured by tracing the track of a neutrophil. The track was recorded with photographs, then the area was measured by cutting and weighing there swept area.

[2] = test system: 47 kDa and 65 kDa proteins; assay: PMA-induced phosphorylation of 47 kDa and 65 kDa neutrophil proteins; format: cell-based, human; conditions: for phosphorylation of 47 kDa and 65 kDa proteins / time in which inhibitory effect on phosphorylation is observed: 15-45 μM; for phosphorylation of 47 kDa and 65 kDa proteins: PMA 1.5 μM; for time in which inhibitory effect on phosphorylation is observed: incubation
Protocol: Excess unbound components were removed by centrifugation and the pellets were resuspended in the same buffer, repeating twice. The cells then were divided into 7 treatment groups, each containing ≈1×10^7 cells in a total volume of 0.4 ml. […] Two minutes later, the reaction was terminated by adding 0.1 ml of Laemmli's sample buffer and 20 mM EDTA, followed by heating at 100° C. for 5 min. Aliquots were separated through 10% sodium dodecyl sulfate gels using known procedures. ^32 P incorporation was visualized by autoradiography.

[3] = test system: phosphoinositide turnover; assay: fMLP-induced phosphoinositide turnover in neutrophils (32P incorporation); format: cell-based, human; conditions: for activity at 5 µM: Homo sapiens, Neutrophil, Table VI, 5 μM effector plus fMLP, control 100, read-out: PIP labeling
Protocol: Amount of ^32 P in PIP and PIP2 was measured using TLC separation. The spots on TLC plates were scraped off and the radioactivity therein was measured with a Beckman scintillation counter. Each spot was compared as to intensity with the identical spot of the control sample.
After incubation, the cells were washed and resuspended in the same buffer at a concentration of 1×10^7 cells/ml. Each suspension (1 ml) then was pretreated with TMS, SPN or DMS, or equal volume of 50% ethanol, for 10 min at 37° C. Then keeping the same temperature, fMLP was added to a final concentration of 1.0 μM. Two minutes later, the reaction was terminated by adding 3.75 ml of chloroform/methanol (1:2) to each cell suspension, followed by sonication for 15 min. An additional 1.25 ml of chloroform, 1.25 ml of water and 50 μl of acetone were added and the total mixture was mixed and left overnight.
Following centrifugation of the mixture, the phospholipids were extracted by Folch's partition method, taking the lower phase from the cell lysate. […] The TLC plate was developed with control phospholipids, in a solvent comprising chloroform/methanol/4M NaOH at a ratio of 45:35:10 and containing 0.1% CDTA (trans-1,2-diaminocyclohexane-N,N,N',N'-tetraacetic acid) for 65 min at 37° C. The bands were identified by staining the control phospholipids with primuline and visualization under ultraviolet light. Autoradiography was performed with Kodak diagnostic film GBX-2 (Rochester N.Y.) by exposing overnight at 37° C.

[4] = test system: HL60 cells; assay: HL60 cell binding to activated platelets; format: cell-based, human; conditions: thrombin- and PMA-stimulated platelets
Protocol: FIGS. 12A and 12B depict results of representative experiments assessing the degree of HL60 binding to platelets. Platelets were exposed to inhibiting compounds (symbols are the same as in the legend to FIGS. 11A and 11B) and affixed to the wells of a microtiter plate. HL60 cells labelled with tritiated thymidine were introduced into the wells and the amount of bound radioactivity was assessed.
HL60 (a human promylelocytic cell line available from the ATCC under accession number CCL 240) adhesion on resting or activated platelet-coatedsolid phase was evaluated as follows. Each well of a 48-well plate (Costar Scientific, Cambridge, Mass.) was filled with a poly-L-lysine solution (100 μg/ml in PBS) and incubated for 1 hour. Each well then was washed with PBS and then 150 μl of PBS containing 6×10^7 resting or activated platelets were added to each well and the plate was incubated for 1 hour. Plates were centrifuged (300×g for 7 minutes) and incubated a further 30 minutes at room temperature. Bound platelets were fixed by addition of 0.1% (w/v) glutaraldehyde in PBS for 2 minutes at 4° C. Each well was washed with 10 mM glycine in PBS and plates were incubated with 5% (w/v) BSA containing 0.1% (w/v) sodium azide, 10 mM glycine in PBS for 1 hour at room temperature.
After washing with culture medium (RPMI 1640 containing 5% (v/v) FCS), 1×10^6 HL60 cells labeled with [^3 H]thymidine were added to each well. HL60 was maintained in RPMI 1640 medium (purchased from Irvine Scientific, Santa Ana, Calif.) supplemented with 10% FCS (Hyclone, Logan, Utah). (Radiolabeling of HL60 cells used for cell adhesion assays was performed by incubating cells with 2 μCi/ml of [^3 H]thymidine overnight.) After incubation for 45 minutes at room temperature, unbound cells were aspirated and wells were washed once with medium (RPMI 1640 containing 5% (v/v) FCS), bound cells were detached with 0.05% (w/v) trypsin-0.02% (w/v) EDTA (Irvine Scientific) in PBS and the levels of radioactivity in each well were determined in a liquid scintillation counter.

[5] = water solubility; format: physicochemical; conditions: for appearance of aqueous solution: neutral or physiologic pH
From the text: For comparison purposes those same test cells also are exposed to sphingosine and N,N-dimethylsphingosine.

[6] = Table IV, 12 μM preincubation then 200-fold dilution, control 100
[7] = chloride salts and slightly acidic pH

| Compound | activity at 4.5 µM ([1]; Table I, 4.5 μM, control 100) [%] | activity at 12 µM [1, 6] [%] | phosphorylation of 47 kDa and 65 kDa proteins [2] | time in which inhibitory effect on phosphorylation is observed [2] [min] | activity at 5 µM [3] [%] | inhibition of HL60 cell binding [4] | water solubility [5, 7] | appearance of aqueous solution [5] | water solubility ([5]; particularly at physiologic pH) | also measured |
| --- | --- | --- | --- | --- | --- | --- | --- | --- | --- | --- |
| CCCCCCCCCCCCC/C=C/[C@@H](O)[C@H](CO)N(C)C [DMS, (4E)-N,N-dimethyl-D-erythro-sphingosine] | 26 ± 25 | 32 ± 19 | diminished significantly | ≤ 2 | 146 ± 27 | inhibited strongly | soluble in water | tend to form opaque suspensions | less water soluble | – |
| CCCCCCCCCCCCC/C=C/[C@@H](O)[C@@H](N)CO [SPN, sphingosine] | – | – | diminished significantly | ≤ 2 | 174 ± 37 | minimally inhibited | soluble in water | tend to form opaque suspensions | less water soluble | activity at 4.5 µM [1]: 14 ± 7%; activity at 12 µM [1]: 42 ± 24% |
| CCCCCCCCCCCCC/C=C/[C@@H](O)[C@H](CO)[N+](C)(C)C [TMS, N,N,N-trimethylsphingosine] | 16 ± 18 | 92 ± 34 | diminished significantly | ≤ 2 | 127 ± 19 | inhibited strongly | – | – | highly water soluble | suppression of phagokinetic activity ([1]; 1.5 μM): suppressed significantly; suppression of phagokinetic activity ([1]; 4.5 μM): completely suppressed; neutrophil migration (phagokinetic) ([1]; Example 9): inhibited neutrophil migration; reversal of inhibitory effect on phagokinetic activity ([1]; medium replaced with TMS-free medium): reversed completely; phosphorylation of specific proteins related to protein kinase C ([2]; Example 7): had an affect on phosphorylation of specific proteins; suppression of fMLP-dependent enhancement of 32P incorporation into PI, PIP and PIP2 ([3]; 5 μM, fMLP 1 μM): suppressed strongly; fMLP induced phosphorylation of phosphotidyl inositols ([3]; Example 8): suppressed; solubility in aqueous solvents [5]: excellent solubility; solubility ([5]; acidic, neutral or basic conditions): stable, clear solutions |
| Calphostin C | – | – | – | – | – | – | – | – | – | Area Swept ([1]; Table I, 0.5 μM, control 100, 120 min): 39 ± 11% |
